The source of these data is patent US20040110678A1, “Novel drug delivery system” (priority 2001, published 2004).

Values after ≈ are worked out from the molar mass of the structure shown. Where two headings read alike, the source gives them in different places. Where a SMILES comes first, the peptide text is derived from it. The star is where a group is joined. Palmitoyl = CCCCCCCCCCCCCCCC(=O)*; Myristoyl = CCCCCCCCCCCCCC(=O)*

Series [1] concerns the target T1, HSAff (Homo sapiens, UniProt P02768).
T1 construct: purchased Sigma-Aldrich Company Ltd catalogue number not given; lot 32H9300
The series can be described thus: Displacement of albumin-bound diazepam from HSAff-diazepam (1:1) monitored by induced CD. The format is binding. On the procedure: Diazepam (0.088 mg) was dissolved by sonication for 30 mins in distilled water (0.687 ml). Sodium palmitate (0.872 mg) was dissolved in water pH 8.8 (0.698 ml) by sonicating for 5 mins. […] The CD spectrum of the mixture was then recorded. Sodium palmitate (51 μl) was added to the cell and the mixture was gently mixed by rotating the cell several times. The CD spectrum of the mixture was recorded. This process was repeated twice over, each time the CD spectrum was recorded. The cell was then washed thoroughly with distilled water and ethanol. Distilled water (2.705 ml) was then placed in the 5 cm cell and CD spectrum recorded.
CD spectra were recorded with nitrogen flushed JASCO spectropolarimeter J600 using 4 s time constant, 10 nm/min scan speed and a spectral bandwidth of 2 nm. The induced CD spectra of bound diazepam were obtained by subtracting the spectrum of albumin from that of the HSA-diazepam mixture. The spectra were reported as Δε=εL−εR(M^−1cm^−1).
Diazepam and medium chain fatty acids are known to bind to albumin site II as discussed by T Peters, All about albumin, Academic Press, 1999, p116. The fatty acid molecules are devoid of any CD signal. […] In here, diazepam is used as a marker to show the binding of fatty acids and fatty acid containing molecules to albumin. […] Palmitic acid binds to at least five long chain fatty acid binding sites of which one is closely located to albumin site II as reported by Curry et al. (1998, Nature Structural Biology, 5, 827-835).

The subject of series [2] is Staphylococcus aureus NCTC Oxford. The series can be described thus: microbe, parasite or virus in culture. The format is cell-based. As to conditions: for MIC: read-out: MIC S. aureus. The protocol: (§1) Staphylococcus aureus NCTC Oxford and Escherichia coli 0111-NCTC 8007 strains were obtained from the National Collection of Type Cultures, Colindale, UK MIC for each sample was determined in 96 well plates. The above sample in PBS was serially diluted in microtitre wells with media, RPMI-1640 to give concentrations from 2 mg/ml to 0.00375 mg/ml or from 1 mg/ml to 0.00375 mg/ml or from 0.5 mg/ml to 0.00375 mg/ml of RH01 in a final volume of 100 μl. Bacteria were incubated at 37° C. overnight in standard media to give approximately 10^8 bacteria/ml and 10 μl of this was added to each well. The plates were incubated at 37° C. overnight, and bacterial growth determined by formation of a pellet.
(§2) Staphylococcus aureus NCTC Oxford and Escherichia coli 0111-NCTC 8007 strains were obtained from the National Collection of Type Cultures, Colindale, UK. The MIC for each sample was determined in 96 well plates. The RH01 in PBS (see above) was serially diluted in microtitre wells with media (RPMI-1640) to give final concentrations of 2 mg/ml to 0.00375 mg/ml of RH01 in a final volume of 100 μl. Bacteria were incubated at 37° C. overnight in standard media to give approximately 10^8 bacteria/ml and 10 μl of this was added to each well. The plates were incubated at 37° C. overnight, and bacterial growth determined by formation of a pellet.

The subject of series [3] is Escherichia coli 0111-NCTC 8007. The class given is cell-based. As to conditions: for Minimum Inhibitory Concentration E. coli: NCTC 8007. The protocol:
as §1, §2

The test system of series [4] is Pronase®. The class given is in vitro ADME.
Description: HSA fatty acid free (2.359 mg) was dissolved in distilled water (3.93 ml) to give concentration 0.60 mg/ml. Pronase® (0.363 mg) was dissolved in distilled water (0.605 ml) to give a concentration 0.60 mg/ml.
HSA fatty acid free solution (0.2 ml) was placed in a 0.05 cm cell and the circular dichroism spectrum (CD) was recorded. The cell was then thoroughly washed with distilled water and ethanol. HSA fatty acid free solution (2.7 ml) was placed in a glass vial. Pronase® solution (27 μl) was added to HSA fatty acid free solution in the glass vial. The mixture was mixed gently and 200 μl was transferred to 0.05 cm cell. The cell was then incubated at 37° C. and CD spectra recorded at various incubation time intervals.
CD spectra were recorded with nitrogen flushed JASCO spectropolarimeters J600 4s time constant, 10 nm/min scan speed and a spectral bandwidth of 2 nm. […]
HSA fatty acid free solution (275 μl) was placed in a glass vial. […] Mixture (200 μl) was transferred into a 0.05 cm cell and CD spectrum was recorded. […] The cell was then incubated at 37° C. and CD spectra recorded at various incubation time intervals.
HSA with fatty acid solution (275 μl) was placed in a glass vial. […] Mixture (200 μl) was transferred into a 0.05 cm cell and CD spectrum was recorded. […] The cell was then incubated at 37° C. and CD spectra recorded at various incubation time intervals. […]
In series [5] the target is T2, BSAff (Bos taurus, UniProt P02769).
T2 construct: Bovine serum albumin essentially fatty acid free; purchased Sigma-Aldrich Company Ltd catalogue number not given; lot 100K7415
The series can be described thus: Diazepam binding to fatty acid free bovine serum albumin by induced CD. As to conditions: fatty acid 0M/M. On the procedure: BSAff (1.914 mg) was dissolved in distilled water (3.19 ml) to give concentration of 0.6 mg/ml. Diazepam (0.422 mg) was dissolved by sonication for 30 mins in distilled water (3.297 ml) to give a concentration of 0.128 mg/ml. BSAff solution (1.05 ml) was transferred to 2 cm cell and CD spectra was recorded. Diazepam (22 μl) was added to the BSAff in the 2 cm cell and the mixture was gently mixed by rotating the cell several times. The CD spectrum of the mixture was then recorded. The cell was then washed thoroughly with distilled water and ethanol. Distilled water (1.10 ml) was then placed in the 2 cm cell and CD spectrum recorded. CD parameters are as in example 1.

[6] abbreviates: Staphylococcus aureus, 0.5 h, Table 2, peptide incubation time in mixture 30 min 25° C.
Where [7] appears, read: Staphylococcus aureus, Table 2, peptide incubation time in mixture 2 h 37° C.

T1 sequence (P02768 25-609): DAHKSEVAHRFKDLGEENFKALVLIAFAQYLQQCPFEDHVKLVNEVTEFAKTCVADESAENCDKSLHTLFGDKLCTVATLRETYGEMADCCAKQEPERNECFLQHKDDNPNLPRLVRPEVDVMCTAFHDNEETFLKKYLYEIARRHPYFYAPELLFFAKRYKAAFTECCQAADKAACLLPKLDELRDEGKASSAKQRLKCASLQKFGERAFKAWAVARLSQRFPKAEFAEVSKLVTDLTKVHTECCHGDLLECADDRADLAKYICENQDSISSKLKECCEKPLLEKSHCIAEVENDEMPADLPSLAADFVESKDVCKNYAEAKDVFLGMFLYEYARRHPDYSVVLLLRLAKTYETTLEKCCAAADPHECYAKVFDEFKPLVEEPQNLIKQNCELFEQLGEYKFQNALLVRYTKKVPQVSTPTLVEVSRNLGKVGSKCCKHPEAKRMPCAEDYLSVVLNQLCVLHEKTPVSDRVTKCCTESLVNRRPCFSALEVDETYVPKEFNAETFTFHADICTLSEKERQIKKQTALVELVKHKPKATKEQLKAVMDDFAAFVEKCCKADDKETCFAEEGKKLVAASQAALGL
T2 sequence (P02769 25-607): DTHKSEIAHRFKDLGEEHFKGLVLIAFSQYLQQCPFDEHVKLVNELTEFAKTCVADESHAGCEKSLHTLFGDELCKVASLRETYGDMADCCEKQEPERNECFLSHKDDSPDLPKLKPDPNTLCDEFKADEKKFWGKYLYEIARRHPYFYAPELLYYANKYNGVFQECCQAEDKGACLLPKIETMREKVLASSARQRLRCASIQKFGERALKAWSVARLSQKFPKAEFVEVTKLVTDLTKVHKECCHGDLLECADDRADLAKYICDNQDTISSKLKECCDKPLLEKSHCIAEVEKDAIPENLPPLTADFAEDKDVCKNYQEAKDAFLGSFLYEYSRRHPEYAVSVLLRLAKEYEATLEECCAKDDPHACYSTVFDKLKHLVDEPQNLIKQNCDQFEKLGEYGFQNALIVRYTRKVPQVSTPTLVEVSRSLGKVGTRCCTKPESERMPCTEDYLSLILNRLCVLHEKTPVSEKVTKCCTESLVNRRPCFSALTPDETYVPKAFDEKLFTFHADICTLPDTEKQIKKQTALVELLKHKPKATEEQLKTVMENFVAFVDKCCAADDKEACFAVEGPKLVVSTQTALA

As to `CCCCCCCCCCCCCCCC(=O)O` [PA, palmitic acid], the “percentage of diazepam induced CD” value amounted to 88.5% in series [1] (1 molar equivalent added to the mixture HSAff-diazepam (1:1)), 60.0% in series [1] (2 molar equivalents added to the mixture HSAff-diazepam (1:1)) and 18.6% in series [1] (3 molar equivalents added to the mixture HSAff-diazepam (1:1)). For the same molecule, the MIC in series [2] (setting [6]) and in series [2] (setting [7]) was above 800 µM throughout.

As to `CCCCCCCCCCCCCCCC(=O)NCCCC[C@H](NC(=O)[C@H](CC(N)=O)NC(=O)[C@H](CCCCN)NC(=O)[C@H](CCC(N)=O)NC(=O)[C@H](CCCNC(=N)N)NC(=O)[C@H](CC(C)C)NC(=O)[C@H](C)NC(=O)CNC(=O)[C@H](CCCCN)NC(=O)[C@H](CCCNC(=N)N)NC(=O)[C@H](C)NC(=O)[C@H](Cc1ccccc1)NC(=O)[C@H](CCCCN)NC(=O)CCCCCCCCCCCCCCC)C(N)=O` [RH02] (Palmitoyl-KFARKGALRQKNK(Palmitoyl)-NH2), the “Minimum Inhibitory Concentration E. coli” value in series [3] was 62 µM. The “Minimum Inhibitory Concentration S. aureus” value in series [2] (NCTC Oxford) was 3.7 µM.

`CCCCCCCCCCCCCCCC(=O)NCCCC[C@H](NC(=O)[C@H](CC(N)=O)NC(=O)[C@H](CCCCN)NC(=O)[C@H](CCCCNC(=O)CCCCCCCCCCCCCCC)NC(=O)[C@H](CCCNC(=N)N)NC(=O)[C@H](CC(C)C)NC(=O)[C@H](C)NC(=O)CNC(=O)[C@H](CCCCN)NC(=O)[C@H](CCCNC(=N)N)NC(=O)[C@H](C)NC(=O)[C@H](Cc1ccccc1)NC(=O)[C@H](CCCCN)NC(=O)CCCCCCCCCCCCCCC)C(N)=O` [RH03] (Palmitoyl-KFARKGALRK(Palmitoyl)KNK(Palmitoyl)-NH2): the “Minimum Inhibitory Concentration E. coli” value in series [3] was found to be 441 µM. For the same molecule, in series [2] (NCTC Oxford), the “Minimum Inhibitory Concentration S. aureus” value is 55 µM.

Take `CCCCCCCC(=O)O` [CA, caprylic acid, reference compound]: the MIC in series [2] (setting [6]) and in series [2] (setting [7]) was above 800 µM in each case.

Take `CCCCCCCCCCCCCC(=O)N[C@@H](Cc1ccccc1)C(=O)N[C@@H](C)C(=O)N[C@@H](CCCNC(=N)N)C(=O)N[C@@H](CCCCN)C(=O)NCC(=O)N[C@@H](C)C(=O)N[C@@H](CC(C)C)C(=O)N[C@@H](CCCNC(=N)N)C(=O)N[C@@H](CCC(N)=O)C(=O)O` [RH01] (Myristoyl-FARKGALRQ-OH): the “displacement of diazepam (DZ) from HSAff-DZ (1:1)” value in series [1] (added at different molar ratios, data not shown) was “decreased induced CD”. Further, the “stability towards Pronase degradation, comparison in words” value in series [4] is “stabilises fat free DBax HSA like HSAff”. For the same molecule, in series [3], the “Minimum Inhibitory Concentration E. coli” value was 48 µM. Further, the “potency with HSAff compared to the lipopeptide alone or with HSAfa” value in series [3] (from Table 1) and in series [2] (from Table 1) was “twice as potent” throughout. In addition, the MIC is listed as 24 µM (≈ 30.2 µg/mL) in series [2] (NCTC Oxford, 2 h) and 12 µM (≈ 15.1 µg/mL) in series [2] (NCTC Oxford).

Take “BSAff: bovine serum albumin essentially fatty acid free and essentially globulin-free”: the “induced CD of diazepam bound to BSAff, in words” value in series [5] is given as “characteristic induced CD”.

Consider `CC(C)C[C@H](NC(=O)[C@H](C)NC(=O)CNC(=O)[C@H](CCCCN)NC(=O)[C@H](CCCNC(=N)N)NC(=O)[C@H](CCCCN)NC(=O)[C@H](Cc1ccccc1)NC(=O)[C@@H](N)CCCCN)C(=O)N[C@@H](CCCNC(=N)N)C(=O)N[C@@H](CCC(N)=O)C(=O)N[C@@H](CCCCN)C(=O)N[C@@H](CC(N)=O)C(=O)N[C@@H](CCCCN)C(N)=O` [RH04], for which the “Minimum Inhibitory Concentration E. coli” value in series [3] was determined as 620 µM. The “Minimum Inhibitory Concentration S. aureus” value in series [2] (NCTC Oxford) came out at 145 µM.
